Source: patent US11999727B2 (Tango Therapeutics, Inc., priority 2020, dated 2024)

How the values were obtained:
PRMT5 [1] = biological target: T1, PRMT5 (Homo sapiens, UniProt O14744); test: PRMT5 biochemical IC50 assay with SAM as cofactor; settings: PRMT5, SAM as cofactor; read-out: SAM IC50
T1 construct: purchased Viva (custom protein)

PRMT5 [2] = biological target: T1, PRMT5; test: PRMT5 biochemical IC50 assay with no cofactor; settings: PRMT5, no cofactor; read-out: No Cofactor/rel IC50
Source text: Table 1 indicates IC50 values (μM) against PRMT5 for exemplary compounds in the presence of SAM as cofactor, with no cofactor, and with MTA as cofactor, respectively (columns 4-6). […] Ki values can be calculated from the IC50 values as described in the Examples section. As detailed in the Examples section, for the assay performed in the presence of SAM, IC50=Ki×1.5 (Ki=IC50/1.5).

PRMT5 [3] = biological target: T1, PRMT5; test: PRMT5 biochemical IC50 assay with MTA as cofactor; settings: PRMT5, MTA as cofactor; read-out: MTA IC50
[4] = tested on: HAP1 MTAP-intact cell line; test: SDMA in-cell western assay, HAP1 MTAP-intact; format: cell-based; settings: Homo sapiens, HAP1, SDMA in-cell western, HAP1 MTAP-intact; read-out: MTAP HAP1 intact IC50
Method in brief: (§1)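 MTAP-null vs endogenous-MTAP HAP1 isogenic cells; in-cell western SDMA readout; IC50 per line.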

[5] = tested on: HAP1 MTAP-deleted cell line; test: SDMA in-cell western assay, HAP1 MTAP-deleted; format: cell-based; settings: for IC50: Homo sapiens, HAP1, SDMA in-cell western, HAP1 MTAP-deleted, read-out: HAP1 MTAP deleted IC50; for MTAP intact/deleted ratio: IC50 ratio HAP1 MTAP-intact / HAP1 MTAP-deleted, SDMA in-cell western
Method in brief: as §1

[6] = tested on: HAP1 MTAP-deleted cell line; test: Viability assay, MTAP-deleted cell line; format: cell-based; settings: Homo sapiens, HAP1, viability assay, MTAP-deleted cell line; read-out: HAP1 MTAP deleted viability
Source text: Table 1 additionally indicates IC50 values in a viability assay for the MTAP-deleted cell line (column 10), indicating the effect of treatment with compound on cell survival.

T1 sequence (O14744 whole entry): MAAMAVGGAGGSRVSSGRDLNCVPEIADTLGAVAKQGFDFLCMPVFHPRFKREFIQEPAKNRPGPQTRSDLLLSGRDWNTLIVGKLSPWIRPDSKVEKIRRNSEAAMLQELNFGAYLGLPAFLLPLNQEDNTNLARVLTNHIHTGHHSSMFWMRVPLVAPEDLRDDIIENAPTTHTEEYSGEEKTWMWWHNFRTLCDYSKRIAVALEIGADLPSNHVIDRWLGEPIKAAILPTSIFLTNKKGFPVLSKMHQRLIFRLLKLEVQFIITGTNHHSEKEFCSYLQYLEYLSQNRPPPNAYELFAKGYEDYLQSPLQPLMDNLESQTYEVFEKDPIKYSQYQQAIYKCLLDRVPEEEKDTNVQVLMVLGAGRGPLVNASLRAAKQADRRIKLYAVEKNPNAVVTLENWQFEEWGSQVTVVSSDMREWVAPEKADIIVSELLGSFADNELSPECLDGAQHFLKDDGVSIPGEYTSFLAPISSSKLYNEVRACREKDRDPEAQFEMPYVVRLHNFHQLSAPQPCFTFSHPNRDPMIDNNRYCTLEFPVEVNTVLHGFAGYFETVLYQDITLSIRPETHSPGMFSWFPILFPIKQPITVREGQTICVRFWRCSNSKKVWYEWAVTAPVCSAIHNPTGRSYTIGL
T1 sequence (Q9BQA1 whole entry partner): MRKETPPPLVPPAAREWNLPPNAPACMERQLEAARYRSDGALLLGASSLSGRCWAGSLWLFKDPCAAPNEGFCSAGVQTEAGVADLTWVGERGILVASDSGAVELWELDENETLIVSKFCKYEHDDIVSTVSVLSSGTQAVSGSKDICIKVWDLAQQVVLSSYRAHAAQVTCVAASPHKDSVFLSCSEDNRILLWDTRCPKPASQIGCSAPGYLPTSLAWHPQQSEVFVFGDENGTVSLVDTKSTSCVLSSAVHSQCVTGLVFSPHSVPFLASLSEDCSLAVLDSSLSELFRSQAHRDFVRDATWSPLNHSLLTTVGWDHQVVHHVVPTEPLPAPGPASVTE

With `CNc1ccc([C@H]2CC[C@H](C)CN2C(=O)C(=O)Nc2cnc(OC)c(C(N)=O)c2)cn1` (single isomer, unassigned) [Compound 447] the IC50 (PRMT5 [1]) was 50 to 500 nM, the IC50 (PRMT5 [2]) was < 50 nM and the IC50 (PRMT5 [3]) was < 50 nM. The IC50 [4] was > 1000 nM, the IC50 [5] was < 100 nM and the MTAP intact/deleted ratio [5] was “A (an IC50 ratio greater than or equal to 10 fold)”. The IC50 [6] was < 1000 nM.

For `CNc1ccc([C@@H]2CC[C@@H](C)CN2C(=O)C(=O)Nc2cnc(OC)c(C(N)=O)c2)cn1` (single isomer, unassigned) [Compound 448], the IC50 (PRMT5 [1]) was > 500 nM, the IC50 (PRMT5 [2]) was > 500 nM and the IC50 (PRMT5 [3]) was > 500 nM. For the same compound, the IC50 [4] was > 1000 nM, the IC50 [5] was > 1000 nM and the MTAP intact/deleted ratio [5] was “C (an IC50 ratio of less than 3 fold)”. The IC50 [6] was > 10000 nM.

For `CNc1cccc([C@@H]2CC[C@@H](C)CN2C(=O)C(=O)Nc2cnc(N)c(C)c2)c1` (single isomer, unassigned) [Compound 449], the IC50 (PRMT5 [1]) was 50 to 500 nM, the IC50 (PRMT5 [2]) was 50 to 500 nM and the IC50 (PRMT5 [3]) was < 50 nM. The IC50 [4] was 100 to 1000 nM, the IC50 [5] was < 100 nM and the MTAP intact/deleted ratio [5] was “A (an IC50 ratio greater than or equal to 10 fold)”. For the same compound, the IC50 [6] was < 1000 nM.

In the case of `CC(=O)Nc1ccc([C@@H]2CC[C@@H](C)CN2C(=O)C(=O)Nc2cncc(C(N)=O)c2)cc1` (single isomer, unassigned) [Compound 451], the IC50 (PRMT5 [1]) is reported as 50 to 500 nM, the IC50 (PRMT5 [2]) is reported as 50 to 500 nM and the IC50 (PRMT5 [3]) is reported as < 50 nM. The IC50 [4] was > 1000 nM, the IC50 [5] was < 100 nM and the MTAP intact/deleted ratio [5] was “A (an IC50 ratio greater than or equal to 10 fold)”. For the same compound, the IC50 [6] was 1000 to 10000 nM.

`COc1ncc(NC(=O)C(=O)N2C[C@H](C)CC[C@H]2c2ccc3c(c2)CC(=O)N3)cc1C(N)=O` (single isomer, unassigned) [Compound 453] was tested, and the IC50 (PRMT5 [1]) was > 500 nM, the IC50 (PRMT5 [2]) was > 500 nM and the IC50 (PRMT5 [3]) was > 500 nM. The IC50 [4] was > 1000 nM, the IC50 [5] was > 1000 nM and the MTAP intact/deleted ratio [5] was “C (an IC50 ratio of less than 3 fold)”. The IC50 [6] was > 10000 nM.

With `COc1ncc(NC(=O)C(=O)N2C[C@@H](C)CC[C@@H]2c2ccc3c(c2)CC(=O)N3)cc1C(N)=O` (single isomer, unassigned) [Compound 454] the IC50 (PRMT5 [1]) was 50 to 500 nM, the IC50 (PRMT5 [2]) was < 50 nM and the IC50 (PRMT5 [3]) was < 50 nM. For the same compound, the IC50 [4] was 100 to 1000 nM, the IC50 [5] was < 100 nM and the MTAP intact/deleted ratio [5] was “A (an IC50 ratio greater than or equal to 10 fold)”. For the same compound, the IC50 [6] was < 1000 nM.

`C[C@@H]1CC[C@@H](c2ccc(NCC(F)(F)F)cc2)N(C(=O)C(=O)Nc2cncc(C(N)=O)c2)C1` (single isomer, unassigned) [Compound 455] was tested, and the IC50 (PRMT5 [1]) was 50 to 500 nM, the IC50 (PRMT5 [2]) was 50 to 500 nM and the IC50 (PRMT5 [3]) was < 50 nM. For the same compound, the IC50 [4] was > 1000 nM, the IC50 [5] was 100 to 1000 nM and the MTAP intact/deleted ratio [5] was “A (an IC50 ratio greater than or equal to 10 fold)”. The IC50 [6] was 1000 to 10000 nM.

In the case of `C[C@H]1CN(C(=O)C(=O)Nc2cncc(C(N)=O)c2)[C@H](c2ccccc2)CC1(F)F` (single isomer, unassigned) [Compound 457], the IC50 (PRMT5 [1]) is reported as 50 to 500 nM, the IC50 (PRMT5 [2]) is reported as 50 to 500 nM and the IC50 (PRMT5 [3]) is reported as < 50 nM. For the same compound, the IC50 [4] was > 1000 nM, the IC50 [5] was < 100 nM and the MTAP intact/deleted ratio [5] was “A (an IC50 ratio greater than or equal to 10 fold)”. For the same compound, the IC50 [6] was < 1000 nM.

`Cc1cc(NC(=O)C(=O)N2C[C@H](C)CC[C@H]2c2ccc(F)c(F)c2)cnc1N` (single isomer, unassigned) [Compound 458] was tested, and the IC50 (PRMT5 [1]) was 50 to 500 nM, the IC50 (PRMT5 [2]) was < 50 nM and the IC50 (PRMT5 [3]) was < 50 nM. For the same compound, the IC50 [4] was 100 to 1000 nM, the IC50 [5] was < 100 nM and the MTAP intact/deleted ratio [5] was “A (an IC50 ratio greater than or equal to 10 fold)”. It also gave an IC50 [6] of 1000 to 10000 nM.

With `COc1ncc(NC(=O)C(=O)N2C[C@@H](C)CC[C@@H]2c2ccc(N)nc2)cc1C(N)=O` (single isomer, unassigned) [Compound 460] the IC50 (PRMT5 [1]) was 50 to 500 nM, the IC50 (PRMT5 [2]) was < 50 nM and the IC50 (PRMT5 [3]) was < 50 nM. The IC50 [4] was > 1000 nM, the IC50 [5] was < 100 nM and the MTAP intact/deleted ratio [5] was “A (an IC50 ratio greater than or equal to 10 fold)”. The IC50 [6] was < 1000 nM.

For `Cc1cc(NC(=O)C(=O)N2C[C@H](C)CC[C@H]2c2ccc(N)cc2)cnc1N` (single isomer, unassigned) [Compound 461], the IC50 (PRMT5 [1]) was 50 to 500 nM, the IC50 (PRMT5 [2]) was < 50 nM and the IC50 (PRMT5 [3]) was < 50 nM. The IC50 [4] was 100 to 1000 nM, the IC50 [5] was < 100 nM and the MTAP intact/deleted ratio [5] was “B (an IC50 ratio greater than or equal to 3 fold but lower than 10 fold)”. For the same compound, the IC50 [6] was < 1000 nM.
